Reference: patent US6387668B1, “Enantioselective epoxide hydrolases and genes encoding these” (Rijksuniversiteit Groningen, priority 1997, dated 2002)

B1: epoxide hydrolase: 34 kDa monomeric enzyme (approximately 294 amino acids) from Agrobacterium radiobacter AD1, expressed in E.coli (protein)
chain: MTIRRPEDFKHYEVQLPDVKIHYVREGAGPTLLLLHGWPGFWWEWSKVIGPLAEHYDVIVPDLRGFGDSEKPDLNDLSKYSLDKAADDQAALLDALGIEKAYVVGHDFAAIVLHKFIRKYSDRVIKAAIFDPIQPDFGPVYFGLGHVHESWYSQFHQLDMAVEVVGSSREVCKKYFKHFFDHWSYRDELLTEEELEVHVDNCMKPDNIHGGFNYYRANIRPDAALWTDLDHTMSDLPVTMIWGLGDTCVPYAPLIEFVPKYYSNYTMETIEDCGHFLMVEKPEIAIDRIKTAFR

Columns and labels:
epoxide hydrolase = epoxide hydrolase (Agrobacterium tumefaciens, UniProt O31243); experiment: Kinetics of epoxide hydrolase with epichlorohydrin as substrate; format: biochemical, Agrobacterium radiobacter
Description: It is now possible to study the kinetics of epoxide hydrolase by performing rapid quench and stopped flow experiments. Stopped flow experiments are possible since substrate is able to quench the fluorescence signal of some of the tryptophans present in epoxide hydrolase. Also, it is possible to mutate (replace) the amino acids (e.g. tryptophans) that are involved in substrate binding. Either with site-directed mutagenesis or random mutagenesis, it is possible to modify the substrate specificity and the stereoselectivity of epoxide hydrolase. The epoxide hydrolase has the following characteristics.
The asymmetric hydrolysis of the substrate is generally conducted in aqueous solution. The pH of the solution is maintained by means of a buffer. Maximum enzyme activity is obtained at pH 9 but a range of pH 5 to 11 can be employed. The composition of the buffer can for example be Tris/H2SO4, potassium phosphate or glycine/NaOH. The maximum enzyme activity is obtained at a temperature of 50° C., but the reaction can be conducted at a temperature ranging from 5° C. to 65° C. The substrate concentration used to measure the enzyme activity is from 1 to 20 mM. In case of poorly soluble substrates, the water solubility can be increased by adding a miscible organic cosolvent such a DMSO. Also other organic solvents can be used. […]

[1] = Storage stability of recombinant epoxide hydrolase; format: physicochemical; conditions: 4° C., expressed in E.coli

| Molecule | Km (epoxide hydrolase) [µM] | Vmax (epoxide hydrolase) [μmol min^−1.mg.protein^−1] | Stability on storage [1] |
| --- | --- | --- | --- |
| ClCC1CO1 (stereo not drawn) [epichlorohydrin] | < 30 | 25 | – |
| B1 | – | – | stable at 4 °C for at least half a year |
